Counter-ions that a name gives are not always drawn. Like-named read-outs stand apart in the source and are kept apart here.
How the values were obtained:
[1] = tested on: IL-1β production in THP-1 cells (LPS and ATP; NLRP3 inflammasome activation); assay: THP-1 IL-1β production inhibitory test; format: cell-based, human; details: Homo sapiens, THP-1, 2 h, read-out: IC50 (nM), IL-1β production
Procedure: THP-1 IL-1β Production Inhibitory Test
To THP-1 cells, 50 ng/mL PMA (phorbol myristate acetate, SIGMA, P1585) was added at 37° C. and then the cells were cultured for 2 days. […] The cells were cultured at 37° C. for 15 minutes. LPS (lipopolysaccharide, SIMGA, L2880) and ATP (adenosine triphosphate, SIGMA, A2383) were added such that the final concentrations of them became 50 ng/mL and 5 mM, respectively. The cells were cultured at 37° C. for 2 hours. The supernatant was collected and the concentration of IL-1β was measured by ELISA (DuoSet ELISA human IL-1β, R&D Systems, DY201). The concentration of IL-1β was plotted against the logarithm of the concentration of the test compound, and the IC50 value was calculated by sigmoidal Emax model nonlinear regression analysis.

[2] = tested on: TNF-α production in THP-1 cells (LPS); assay: TNF-α production inhibitory test; format: cell-based; details: Homo sapiens; PMA-differentiated THP-1 cells, LPS 50 ng/mL, 2 hours, ELISA
Procedure: TNF-α Production Inhibitory Test
To THP-1 cells, 50 ng/mL PMA (phorbol myristate acetate, SIGMA, P1585) was added and then the cells were cultured at 37° C. for 2 days. The culture medium was exchanged with serum-free RPMI-1640 medium, and a compound known in concentration was added. The cells were cultured at 37° C. for 15 minutes. LPS (lipopolysaccharide, SIMGA, L2880) was added such that the final concentrations of them became 50 ng/mL. The cells were cultured at 37° C. for 2 hours. The supernatant was collected and the concentration of TNF-α was measured by ELISA (DuoSet ELISA human TNF-α, R&D Systems, DY201). The concentration of TNF-α was plotted against the logarithm of the concentration of the test compound, and the IC50 value was calculated by sigmoidal Emax model nonlinear regression analysis.

[3] = tested on: IL-1β p17 in cerebrospinal fluid; assay: Rat central nervous system IL-1β production test; format: in vivo; details: male Wistar rats, oral, LPS and BzATP in cisterna magna
Procedure: Rat Central Nervous System IL-1β Production Test
Male Wistar rats of 10-14 weeks old were administered with 12.5 μg/5 μL LPS (SIGMA, L2880) in the cisterna magna under isoflurane anesthesia. Two hours later, a test compound was orally administered. Further one hour later, 50 μg/5 μL BzATP (2′(3′)—O-(4-benzoylbenzoyl)adenosine 5′-triphosphate triethylammonium salt, SIGMA, B6396) was administered in the cisterna magna. Thirty minutes later, the cerebrospinal fluid was collected. The cerebrospinal fluid was subjected to Western blotting using an anti-IL-1β antibody (Millipore, AB1832P) to measure IL-1β p17, and then, the suppression rate thereof relative to the solvent-administered group was calculated.
In the Table, Dose refers to a dosage amount of each test compound, and Ex59, Ex75, Ex131, Ex132 and Ex164 represent Example 59, Example 75, Example 131, Example 132 and Example 164, respectively. It was confirmed that the compounds have inhibitory effects on IL-1β production.

[4] = PMA-differentiated THP-1 cells, LPS 50 ng/mL and ATP 5 mM, 2 hours, ELISA

| SMILES | IC50 [1, 4] | further results |
| --- | --- | --- |
| Cc1nc(N[C@@H]2CCOC[C@H]2O)nnc1-c1ccc(Cl)cc1O [Example 31, (3S,4R)-4-{[6-(4-chloro-2-hydroxyphenyl)-5-methyl-1,2,4-triazin-3-yl]amino}oxan-3-ol] | 25 nM | IC50 [2]: ≥ 10 µM |
| Cc1nc(NC[C@H]2CNCCO2)nnc1-c1ccc(C(F)(F)F)cc1O [Example 141, 2-[5-methyl-3-({[(2R)-morpholin-2-yl]methyl}amino)-1,2,4-triazin-6-yl]-5-(trifluoromethyl)phenol] | 470 nM | IC50 [2]: ≥ 10 µM |
| Cc1nc(N[C@@H]2CCCC[C@H]2N)nnc1-c1ccc(C(F)(F)F)cc1O [Ex132] | – | suppression rate of IL-1β p17 relative to the solvent-administered group ([3]; Dose 0.3 mg/kg): −3.7%^; suppression rate of IL-1β p17 relative to the solvent-administered group ([3]; Dose 1 mg/kg): 88%; suppression rate of IL-1β p17 relative to the solvent-administered group ([3]; Dose 3 mg/kg): 88% |
| COc1ccc(-c2nnc(N[C@@H]3CCCC[C@H]3O)nc2C)c(O)c1 [Ex59] | – | suppression rate of IL-1β p17 relative to the solvent-administered group ([3]; Dose 0.3 mg/kg): 45%; suppression rate of IL-1β p17 relative to the solvent-administered group ([3]; Dose 1 mg/kg): 54%; suppression rate of IL-1β p17 relative to the solvent-administered group ([3]; Dose 3 mg/kg): 85% |
| Cc1nc(N[C@@H]2CCC[C@H](O)C2)nnc1-c1ccc(C(F)(F)F)cc1O [Ex75] | – | suppression rate of IL-1β p17 relative to the solvent-administered group ([3]; Dose 0.3 mg/kg): 12%; suppression rate of IL-1β p17 relative to the solvent-administered group ([3]; Dose 1 mg/kg): 73%; suppression rate of IL-1β p17 relative to the solvent-administered group ([3]; Dose 3 mg/kg): 100% |
| Cc1nc(N[C@@H]2CCCN(C)C2)nnc1-c1ccc(C(F)(F)F)cc1O [Ex164] | – | suppression rate of IL-1β p17 relative to the solvent-administered group ([3]; Dose 0.3 mg/kg): 67%; suppression rate of IL-1β p17 relative to the solvent-administered group ([3]; Dose 1 mg/kg): 81%; suppression rate of IL-1β p17 relative to the solvent-administered group ([3]; Dose 3 mg/kg): 80% |
| Cc1nc(NCc2cc[nH]n2)nnc1-c1ccc(C(F)(F)F)cc1O [Example 94] | 70 nM | – |
| Cc1nc(NC[C@@H](C)O)nnc1-c1ccc(C2CC2)cc1O [Example 56] | 12 nM | – |
| Cc1nc(Nc2cnn(C)c2)nnc1-c1ccc(C(F)(F)F)cc1O [Example 93] | 130 nM | – |
| Cc1nc(N[C@@H]2CCC[C@H](O)C2)nnc1-c1ccc(C(F)(F)F)cc1O [Example 185, 2-(3-{[(1R,3S)-3-hydroxycyclohexyl]amino}-5-methyl-1,2,4-triazin-6-yl)-5-(trifluoromethyl)phenol monohydrochloride] | – | IC50 [1]: 5.2 nM |
| Cc1nc(N[C@@H]2CCC[C@H](O)C2)nnc1-c1cc(F)c(C(F)(F)F)cc1O [Example 176] | 43 nM | – |
| Cc1nc(NCCCO)nnc1-c1ccc(C(F)(F)F)cc1O [Example 3] | 69 nM | – |
| Cc1nc(NCc2cccnn2)nnc1-c1ccc(C(F)(F)F)cc1O [Example 28] | 630 nM | – |
| Cc1nc(NC[C@@H](C)O)nnc1-c1ccc(C(F)(F)F)cc1O [Example 4] | 35 nM | – |
| Cc1nc(N[C@@H]2CCC[C@H]2O)nnc1-c1ccc(C(F)(F)F)cc1O [Example 5] | 21 nM | – |
| Cc1nc(N[C@@H]2CCCC[C@H]2O)nnc1-c1ccc(OC(F)F)cc1O [Ex131] | – | suppression rate of IL-1β p17 relative to the solvent-administered group ([3]; Dose 0.3 mg/kg): −33%; suppression rate of IL-1β p17 relative to the solvent-administered group ([3]; Dose 1 mg/kg): −54%; suppression rate of IL-1β p17 relative to the solvent-administered group ([3]; Dose 3 mg/kg): 61% |

| SMILES | IC50 [1, 4] | further results |
| --- | --- | --- |
| Cc1nc(N[C@@H]2CN(C)C[C@H]2O)nnc1-c1ccc(C(F)(F)F)cc1O [Example 162] | 350 nM | – |
| Cc1nc(N[C@@H]2CCCC[C@@]2(C)O)nnc1-c1ccc(OC(F)(F)F)cc1O [Example 58] | 9.3 nM | – |
| Cc1nc(N[C@@H]2CCOC[C@H]2O)nnc1-c1ccc(C2CC2)cc1O [Example 78] | 27 nM | – |
| Cc1nc(N[C@@H]2CCCNC2=O)nnc1-c1ccc(C(F)(F)F)cc1O [Example 42] | 28 nM | – |
| Cc1nc(N[C@@H]2CCCC[C@H]2O)nnc1-c1ccc(C#N)cc1O [Example 25] | 77 nM | – |
| C[C@@]1(O)CCCC[C@H]1Nc1nnc(-c2ccc(Cl)cc2O)c(C2CC2)n1 [Example 123] | 54 nM | – |
| Oc1cc(C(F)(F)F)ccc1-c1nnc(N[C@@H]2CCCC[C@H]2O)nc1-c1ccccc1 [Example 98] | 280 nM | – |
| Cc1nc(N[C@@H]2CCCC[C@H]2O)nnc1-c1ccc(Cl)cc1O [Example 19] | 7.4 nM | – |
| CC(=O)NC[C@H]1C[C@@H](Nc2nnc(-c3ccc(C(F)(F)F)cc3O)c(C)n2)C1 [Example 105] | 36 nM | – |
| Cc1nc(NC2CCCCC2)nnc1-c1ccc(C(F)(F)F)cc1O [Example 6] | 26 nM | – |
| Cc1nc(Nc2ccn(CCO)n2)nnc1-c1ccc(C(F)(F)F)cc1O [Example 90] | 53 nM | – |
| Cc1nc(NC[C@H]2COCCN2)nnc1-c1ccc(C(F)(F)F)cc1O [Example 142] | 340 nM | – |
| Cc1nc(N[C@@H]2CCNC2=O)nnc1-c1ccc(C(F)(F)F)cc1O [Example 43] | 19 nM | – |
| Cc1nc(N[C@@H]2CC[C@@H](O)C2)nnc1-c1ccc(C(F)(F)F)cc1O [Example 30] | 18 nM | – |
| Cc1nc(NC2(CO)COC2)nnc1-c1ccc(C(F)(F)F)cc1O [Example 29] | 84 nM | – |

The remaining compounds from weak to strong by IC50 [1, 4], led by results:

| IC50 [1, 4] | SMILES | further results |
| --- | --- | --- |
| 1500 nM | Cc1nc(N[C@H]2CCCNC2)nnc1-c1ccc(C(F)(F)F)cc1O [Example 137] | – |
| 850 nM | CC(=O)N1CCOC[C@@H]1CNc1nnc(-c2ccc(C(F)(F)F)cc2O)c(C)n1 [Example 158] | – |
| 410 nM | Cc1nc(NCCN2CCOCC2)nnc1-c1ccc(C(F)(F)F)cc1O [Example 95] | – |
| 150 nM | Cc1nc(N[C@H]2CNC(=O)C2)nnc1-c1ccc(C(F)(F)F)cc1O [Example 66] | – |
| 110 nM | Cc1nc(N[C@@H]2CNC2=O)nnc1-c1ccc(C(F)(F)F)cc1O [Example 65] | – |
| 67 nM | Cc1nc(N[C@@H]2CC[C@H](C(=O)O)C2)nnc1-c1ccc(C(F)(F)F)cc1O [Example 182, (1S,3R)-3-({6-[2-hydroxy-4-(trifluoromethyl)phenyl]-5-methyl-1,2,4-triazin-3-yl}amino)cyclopentane-1-carboxylic acid] | – |
| 33 nM | Cc1ccc(-c2nnc(N[C@@H]3CCOC[C@H]3O)nc2C2CC2)c(O)c1 [Example 114] | – |
| 30 nM | Cc1nc(N[C@@H]2CCCCNC2=O)nnc1-c1ccc(C(F)(F)F)cc1O [Example 46] | – |
| 26 nM | COc1ccc(-c2nnc(N[C@@H]3CCC[C@H](O)C3)nc2C)c(O)c1 [Example 168] | – |
| 21 nM | CC1(O)CC(Nc2nnc(-c3ccc(C(F)(F)F)cc3O)c(C3CC3)n2)C1 (stereo not drawn) [Example 108, 2-(5-cyclopropyl-3-{[(1s,3s)-3-hydroxy-3-methylcyclobutyl]amino}-1,2,4-triazin-6-yl)-5-(trifluoromethyl)phenol] | IC50 [2]: ≥ 10 µM |
| 19 nM | Cc1ccc(-c2nnc(N[C@@H]3CCCC[C@H]3O)nc2C2CC2)c(O)c1 [Example 117] | – |
| 10 nM | Cc1nc(N[C@@H]2CCCC[C@H]2O)nnc1-c1ccc(OC(F)(F)F)cc1O [Example 27, 2-(3-{[(1R,2R)-2-hydroxycyclohexyl]amino}-5-methyl-1,2,4-triazin-6-yl)-5-(trifluoromethoxy)phenol] | IC50 [2]: ≥ 10 µM |
| 7.6 nM | Cc1nc(N[C@@H]2CCCC[C@H]2O)nnc1-c1ccc(C(F)(F)F)cc1O [Example 1, 2-(3-{[(1R,2R)-2-hydroxycyclohexyl]amino}-5-methyl-1,2,4-triazin-6-yl)-5-(trifluoromethyl)phenol] | – |
| 5.6 nM | Cc1nc(N[C@@H]2CCCNC2)nnc1-c1ccc(C(F)(F)F)cc1O [Example 138] | – |
| 1.3 nM | Cc1nc(N[C@@H]2CCCN(C3CC3)C2)nnc1-c1ccc(C(F)(F)F)cc1O [Example 73, 2-(3-{[(3R)-1-cyclopropylpiperidin-3-yl]amino}-5-methyl-1,2,4-triazin-6-yl)-5-(trifluoromethyl)phenol] | IC50 [2]: ≥ 10 µM |
| 1.1 nM | Cc1nc(N[C@@H]2CCCN(C)C2)nnc1-c1ccc(OC(F)F)cc1O [Example 174, 5-(difluoromethoxy)-2-(5-methyl-3-{[(3R)-1-methylpiperidin-3-yl]amino}-1,2,4-triazin-6-yl)phenol] | IC50 [2]: ≥ 10 µM |
